Source: US5503776A, “N-acylcarnosines and their use as antioxidants” (National Food Research Institute Ministry of Agriculture, …, priority 1991, dated 1996)
Peptide text beside a SMILES is read from it. * marks the point of attachment. Oleoyl = CCCCCCCC/C=C\CCCCCCCC(=O)*

How the values were obtained:
[1] = Repression of the radical chain autoxidation reaction of methyl linoleate (HPLC of methyl linoleate hydroperoxide); conditions: hexane/isopropyl alcohol (1:1 v/v), 100 mM methyl linoleate, 10 mM 2,2'-azo-bis(2,4-dimethyl valeronitrile), 37° C.; FIG. 8-10
Method: The N-oleoyl-carnosine, N-caprinoyl-carnosine and N-oleoyl-carnosine methyl ester obtained respectively in Examples 1, 3 and 4 were tested for antioxidizing power in terms of repression of the radical chain autoxidation reaction of methyl linoleate. Hexane/isopropyl alcohol (1:1 v/v) containing 100 mM of methyl linoleate, 10 mM of an oil-soluble generating agent (2,2'-azo-bis(2,4-dimethyl valeronitrile)), and various concentration of N-oleoyl-carnosine, N-caprinoyl-carnosine or N-oleoyl-carnosine methyl ester was kept incubated at 37° C., sampled at intervals along the course of time, and analyzed by high-performance liquid chromatography to follow changes in the amount of methyl linoleate hydroperoxide to be formed.

[2] = Emulsifying power in soybean oil/phosphate buffer, turbidity of lower layer O.D. (500 nm); format: physicochemical; conditions: 0.2% in 50 mM phosphate buffer (pH 7), 30° C.; for Relative emulsifying activity (%): one half volume soybean oil, ultrasonic wave, relative to N-oleoyl-carnosine taken as 100; for emulsifying power (in words): oil-water system, soybean oil
Method: The N-oleoyl-carnosine and the N-oleoyl-histidine obtained respectively in Example 1 and Example 2 were tested for emulsifying power. The emulsifying power was determined by dissolving each N-acyl compound in a concentration of 0.2% in 50 mM of phosphate buffer solution (pH 7), combining the resultant solution with one half in volume of soybean oil, subjecting the resultant mixture to a treatment with ultrasonic wave at 30° C., allowing the treated mixture to stand at rest at 30° C. for a prescribed time, and measuring the turbidity of the lower layer consequently separated in the mixture in terms of O.D. (500 nm). […] The magnitudes of emulsifying power given in Table 1 represent relative numerical values of emulsifying power based on the emulsifying power of N-oleoyl-carnosine taken as 100.

[3] = Repression of the radical chain autoxidizing reaction of a multilayer liposome (ferrous sulfate/ascorbic acid, TBA reaction); conditions: 10 μM compound in liposome, 0.1 mM ferrous sulfate, 1 mM ascorbic acid, pH 7.4, 37° C.; FIG. 11
Method: The N-oleoyl-carnosine and the N-oleoyl-histidine obtained respectively in Example 1 and Example 2 were tested for antioxidizing power in terms of the repression of the radical chain autoxidizing reaction of a multilayer liposome. A multilayer liposome was formed of 4 mM of egg yolk phosphatidylcholine, 0.4 mM of egg yolk phosphatidylcholine hydroperoxide,and 10 μM of N-oleoylcarnosine or N-oleoyl-histidine by the use of 10 mM trishydrochloric acid buffer solution (pH 7.4). The multilayer liposome and 0.1 mM of ferrous sulfate and 1 mM of ascorbic acid added thereto were incubated at 37° C., sampled at intervals along the course of time, subjected to the TBA reaction to induce coloration of malondialdehyde resulting from the hydrolysis of lipid peroxide, and analyzed by high-performance liquid chromatography to follow changes in the amount of the hydrolyzate.

| Compound | antioxidizing power (formation of methyl linoleate hydroperoxide) [1] | Relative emulsifying activity (%) [2] | emulsifying power (in words) [2] | antioxidizing power (malondialdehyde from lipid peroxide) [3] |
| --- | --- | --- | --- | --- |
| CCCCCCCCCC(=O)N[C@@H](Cc1c[nH]cn1)C(=O)O [N-caprinoyl histidine] | have antioxidizing powers | – | – | – |
| CCCCCCCC/C=C\CCCCCCCC(=O)NCC(=O)NCC(=O)N[C@@H](Cc1c[nH]cn1)C(=O)O [N-oleoyl glycylglycylhistidine] (Oleoyl-Gly-Gly-His-OH) | have antioxidizing powers | – | – | – |
| CCCCCCCC/C=C\CCCCCCCC(=O)N[C@@H](Cc1cnc[nH]1)C(=O)O [N-oleoyl-His] | have antioxidizing powers | 82.1% | possessed of outstanding emulsifying power | possessed of antioxidizing power |
| Casein | – | 24.3% | – | – |
| CCCCCCCC/C=C\CCCCCCCC(=O)N[C@@H](Cc1c[nH]cn1)C(=O)N[C@@H](CC(C)C)C(=O)O [N-oleoyl histidylleucine] (Oleoyl-His-Leu-OH) | have antioxidizing powers | – | – | – |
| CCCCCCCC/C=C\CCCCCCCC(=O)NCCC(=O)N[C@@H](Cc1cnc[nH]1)C(=O)O [N-oleoyl-carnosine] | possessed of antioxidizing power | 100% | possessed of outstanding emulsifying power | possessed of antioxidizing power |
| CCCCCCCCCC(=O)NCCC(=O)NC(Cc1cnc[nH]1)C(=O)O (centres unmarked) [N-caprinoyl-carnosine, N-Caprinoyl carnosine] | possessed of antioxidizing power | – | – | – |
| CCCCCCCC/C=C\CCCCCCCC(=O)NCCC(=O)N[C@@H](Cc1cnc[nH]1)C(=O)OC [N-oleoyl-carnosine methyl ester, N-Oleoyl carnosine methyl ester] | possessed of antioxidizing power | – | – | – |
